# Test system: human non-small cell lung cancer cell line NCI-H2228 which is positive for the ALK fusion gene
# Assay: NCI-H2228 xenograft tumor volume in SCID mice
# Format: in vivo
# Conditions: SCID mice with NCI-H2228 transplant; agent alone: bevacizumab 5 mg/kg i.p. once a week; cisplatin 5 mg/kg i.v. once a week; paclitaxel 12.5 mg/kg i.v. once a week; gemcitabine 60 mg/kg i.p. twice a week
# Experimental: In the FIGURE, the horizontal axis represents the number of days elapsed after the transplantation of the cells, and the vertical axis represents the tumor volume and the body weight change rate. Control represents control groups to which a solvent is administered and combo represents combined use groups.
row,Compound,change in tumor volume during administration alone
1,N.N.[Cl][Pt][Cl] [cisplatin],No significant change in tumor volume
2,Nc1ccn([C@@H]2O[C@H](CO)[C@@H](O)C2(F)F)c(=O)n1 [gemcitabine],No significant change in tumor volume
3,CC(=O)O[C@H]1C(=O)[C@@]2(C)[C@H]([C@H](OC(=O)c3ccccc3)[C@]3(O)C[C@H](OC(=O)[C@H](O)[C@@H](NC(=O)c4ccccc4)c4ccccc4)C(C)=C1C3(C)C)[C@]1(OC(C)=O)CO[C@@H]1C[C@@H]2O [paclitaxel],No significant change in tumor volume
4,bevacizumab: anti-human VEGF antibody,increases in tumor volume were observed

# From US11896579B2, “Combination drug” (Chugai Seiyaku Kabushiki Kaisha, priority 2015, dated 2024)
